Results as given in patent US11702404B2, “GLP-1R modulating compounds” (priority 2019, dated 2023).

How the values were obtained:
GLP-1R = GLP-1R (Homo sapiens, UniProt P43220); assay: GLP-1R activation: cAMP increase in CHO cells stably expressing GLP-1R; assay type: cell-based; details: cAMP increase, CHO cells stably expressing GLP-1R, 10 point dose response, 30 minutes incubation; read-out: EC50
[1] = Microsomal stability, human liver microsomes (predicted hepatic clearance); details: predicted from in vitro microsomal stability data

Sequence of GLP-1R (P43220 24-463): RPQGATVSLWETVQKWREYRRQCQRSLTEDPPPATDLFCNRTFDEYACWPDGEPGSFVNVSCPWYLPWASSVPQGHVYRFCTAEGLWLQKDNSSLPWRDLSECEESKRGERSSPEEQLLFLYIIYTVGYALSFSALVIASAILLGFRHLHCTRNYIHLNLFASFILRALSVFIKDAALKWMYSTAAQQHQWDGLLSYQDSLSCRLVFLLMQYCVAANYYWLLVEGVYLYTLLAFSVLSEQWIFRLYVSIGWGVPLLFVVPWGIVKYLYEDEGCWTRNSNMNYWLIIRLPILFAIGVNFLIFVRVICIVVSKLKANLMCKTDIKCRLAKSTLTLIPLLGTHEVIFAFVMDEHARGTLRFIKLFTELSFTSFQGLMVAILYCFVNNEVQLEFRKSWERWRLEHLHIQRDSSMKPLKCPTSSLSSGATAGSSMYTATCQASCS

| EC50 (GLP-1R) [nM] | Predicted Hepatic Clearance (Pred. Cl.) [1] [mL/min/kg] | SMILES |
| --- | --- | --- |
| 0.34 | 6.7 | N#CCC1(Cn2c(Cc3ccc(-c4ncc(F)c(OCc5ccc(C#N)cc5F)n4)c(F)c3)nc3ccc(C(=O)O)cc32)CC1 [Example 127, 2-(4-(4-((4-cyano-2-fluorobenzyl)oxy)-5-fluoropyrimidin-2-yl)-3-fluorobenzyl)-1-((1-(cyanomethyl)cyclopropyl)methyl)-1H-benzo[d]imidazole-6-carboxylic acid] |
| 0.51 | <1.83 | N#Cc1ccc(COc2nc(-c3ccc(Cc4nc5ccc(C(=O)O)cc5n4C[C@@H]4CCO4)c(F)c3)ccc2F)c(F)c1 [Example 128, (S)-2-(4-(6-((4-cyano-2-fluorobenzyl)oxy)-5-fluoropyridin-2-yl)-2-fluorobenzyl)-1-(oxetan-2-ylmethyl)-1H-benzo[d]imidazole-6-carboxylic acid] |
| 0.7 | 3.17 | N#CCC1(Cn2c(Cc3cc(F)c(-c4nc(OCc5ccc(C#N)cc5F)ncc4F)cc3F)nc3ccc(C(=O)O)nc32)CC1 [Example 129, 2-(4-(2-((4-cyano-2-fluorobenzyl)oxy)-5-fluoropyrimidin-4-yl)-2,5-difluorobenzyl)-3-((1-(cyanomethyl)cyclopropyl)methyl)-3H-imidazo[4,5-b]pyridine-5-carboxylic acid] |
| 0.11 | 5.5 | N#CCC1(Cn2c(Cc3cc(F)c(-c4ccc(F)c(OCc5ccc(C#N)cc5F)n4)cc3F)nc3ccc(C(=O)O)nc32)CC1 [Example 130, 2-(4-(6-((4-cyano-2-fluorobenzyl)oxy)-5-fluoropyridin-2-yl)-2,5-difluorobenzyl)-3-((1-(cyanomethyl)cyclopropyl)methyl)-3H-imidazo[4,5-b]pyridine-5-carboxylic acid] |
| 0.08 | 4 | N#Cc1ccc(COc2nc(-c3cc(F)c(Cc4nc5c(F)cc(C(=O)O)cc5n4C[C@@H]4CCO4)cc3F)ncc2F)c(F)c1 [Example 131, (S)-2-(4-(4-((4-cyano-2-fluorobenzyl)oxy)-5-fluoropyrimidin-2-yl)-2,5-difluorobenzyl)-4-fluoro-1-(oxetan-2-ylmethyl)-1H-benzo[d]imidazole-6-carboxylic acid] |
| 0.05 | 3.58 | N#Cc1ccc(COc2nc(-c3ccc(Cc4nc5c(F)cc(C(=O)O)cc5n4C[C@@H]4CCO4)c(F)c3)ccc2F)c(F)c1 [Example 132, (S)-2-(4-(6-((4-cyano-2-fluorobenzyl)oxy)-5-fluoropyridin-2-yl)-2-fluorobenzyl)-4-fluoro-1-(oxetan-2-ylmethyl)-1H-benzo[d]imidazole-6-carboxylic acid] |
| 0.26 | 5.58 | N#CCC1(Cn2c(Cc3cc(F)c(-c4ncc(F)c(OCc5ccc(C#N)cc5F)n4)cc3F)nc3ccc(C(=O)O)cc32)CC1 [Example 133, 2-(4-(4-((4-cyano-2-fluorobenzyl)oxy)-5-fluoropyrimidin-2-yl)-2,5-difluorobenzyl)-1-((1-(cyanomethyl)cyclopropyl)methyl)-1H-benzo[d]imidazole-6-carboxylic acid] |
| 0.34 | <1.83 | N#Cc1ccc(COc2nc(-c3ccc(Cc4nc5ccc(C(=O)O)cc5n4CC4(CF)CC4)c(F)c3)ccc2F)c(F)c1 [Example 134, 2-(4-(6-((4-cyano-2-fluorobenzyl)oxy)-5-fluoropyridin-2-yl)-2-fluorobenzyl)-1-((1-(fluoromethyl)cyclopropyl)methyl)-1H-benzo[d]imidazole-6-carboxylic acid] |
| 1.76 | <1.83 | COCCn1c(Cc2ccc(-c3cccc(OCc4ccc(C#N)c5ccoc45)n3)cc2F)nc2ccc(C(=O)O)cc21 [Example 135, 2-(4-(6-((4-cyanobenzofuran-7-yl)methoxy)pyridin-2-yl)-2-fluorobenzyl)-1-(2-methoxyethyl)-1H-benzo[d]imidazole-6-carboxylic acid] |
| 24.5 | 9 | COCCn1c(Cc2ccc(-c3cccc(OCc4cccc5ccoc45)n3)cc2F)nc2ccc(C(=O)O)cc21 [Example 136, 2-(4-(6-(benzofuran-7-ylmethoxy)pyridin-2-yl)-2-fluorobenzyl)-1-(2-methoxyethyl)-1H-benzo[d]imidazole-6-carboxylic acid] |
| 32.2 | 4.83 | COCCn1c(Cc2ccc(-c3cccc(OCc4cccc(C5CC5)c4)n3)cc2F)nc2ccc(C(=O)O)cc21 [Example 137, 2-(4-(6-((3-cyclopropylbenzyl)oxy)pyridin-2-yl)-2-fluorobenzyl)-1-(2-methoxyethyl)-1H-benzo[d]imidazole-6-carboxylic acid] |
| 84.7 | 7.5 | COCCn1c(Cc2ccc(-c3cccc(OCc4cccc(OC(F)F)c4F)n3)cc2F)nc2ccc(C(=O)O)cc21 [Example 138, 2-(4-(6-((3-(difluoromethoxy)-2-fluorobenzyl)oxy)pyridin-2-yl)-2-fluorobenzyl)-1-(2-methoxyethyl)-1H-benzo[d]imidazole-6-carboxylic acid] |
| 26.4 | 7.17 | COCCn1c(Cc2ccc(-c3cccc(OCc4cccc(OCC(F)F)c4)n3)cc2F)nc2ccc(C(=O)O)cc21 [Example 139, 2-(4-(6-((3-(2,2-difluoroethoxy)benzyl)oxy)pyridin-2-yl)-2-fluorobenzyl)-1-(2-methoxyethyl)-1H-benzo[d]imidazole-6-carboxylic acid] |
| 197 | 9.33 | COCCn1c(Cc2ccc(-c3cccc(OCc4cccc(OC(F)F)c4OC)n3)cc2F)nc2ccc(C(=O)O)cc21 [Example 140, 2-(4-(6-((3-(difluoromethoxy)-2-methoxybenzyl)oxy)pyridin-2-yl)-2-fluorobenzyl)-1-(2-methoxyethyl)-1H-benzo[d]imidazole-6-carboxylic acid] |
| 80.3 | 5.5 | COCCn1c(Cc2ccc(-c3cccc(OCc4cc(C(C)C)ccc4F)n3)cc2F)nc2ccc(C(=O)O)cc21 [Example 141, 2-(2-fluoro-4-(6-((2-fluoro-5-isopropylbenzyl)oxy)pyridin-2-yl)benzyl)-1-(2-methoxyethyl)-1H-benzo[d]imidazole-6-carboxylic acid] |
| 162 | 8.83 | COCCn1c(Cc2ccc(-c3cccc(OCc4cccc(C(C)(C)C#N)c4)n3)cc2F)nc2ccc(C(=O)O)cc21 [Example 142, 2-(4-(6-((3-(2-cyanopropan-2-yl)benzyl)oxy)pyridin-2-yl)-2-fluorobenzyl)-1-(2-methoxyethyl)-1H-benzo[d]imidazole-6-carboxylic acid] |
| 2.59 | 5.33 | COCCn1c(Cc2ccc(-c3cccc(OCc4ccc(Cl)c5ccoc45)n3)cc2F)nc2ccc(C(=O)O)cc21 [Example 143, 2-(4-(6-((4-chlorobenzofuran-7-yl)methoxy)pyridin-2-yl)-2-fluorobenzyl)-1-(2-methoxyethyl)-1H-benzo[d]imidazole-6-carboxylic acid] |
